Test results: PMC9268100, “Chelation of Theranostic Copper Radioisotopes with S-Rich Macrocycles: From Radiolabelling of Copper-64 to In Vivo Investigation” (Molecules, 2022)

Key:
Human serum stability = type: in vitro ADME; details: prepared at 25 MBq/nmol, 37 °C, over 24 h
Method: Human serum stability assays were performed as follow: the preformed [^64Cu]Cu^2+ complexes (prepared at 25 MBq/nmol) were diluted 1:5 v/v in human serum. The samples were incubated at 37 °C to simulate the biological environment. At the defined time point, 50 μL of the plasma-containing mixture were added to 200 μL of ice-cold methanol (0.16 MBq/μL final concentration) and centrifuged for 3 min at 8000 rpm. Afterwards, 2 μL of supernatant were spotted on TLC plates developed using the previous protocols. Dissociation of [^64Cu]Cu^2+ from the complexes was also monitored at varying time points using the same procedure with the exception that no proteins were precipitated. In this case, 2 μL of human plasma containing the labelled complex was directly spotted on the TLC plate. […] Both procedures were validated by incubating free [^64Cu]Cu^2+ with human plasma.

[1] = Stability assay with cysteine (1000:1 Cys-to-ligand); type: physicochemical; details: 37 °C
Method: (§1) The stability of the preformed [^64Cu]Cu^2+ complexes was assessed by adding a 1000:1 DOTA/cysteine-to-ligand molar ratio excess. The incubation temperature was set at 37 °C when cysteine was used to simulate the biological environment, whilst it was kept at RT when DOTA was employed as a challenging agent.
(§2) The complex stability was evaluated over time by withdrawing an aliquot from the reaction mixtures. The latter was analyzed by UHPLC using the method described above.

[2] = Stability assay with DOTA (1000:1 DOTA-to-ligand); type: physicochemical; details: RT
Method: as §1, §2

[3] = Biodistribution in BALB/c nude mice; type: in vivo
Method: (§3) All procedures involving animals were performed in accordance with ethical protocols approved by the Italian Ministry of Health (n. 44/2021-PR). Six-week-old female BALB/c nude mice (n = 9) were purchased from Charles River/Envigo and divided into three groups. Mice (n = 3/group) were administered with 7–14 MBq (depending on acquisition time after injection) of [^64Cu][Cu(DO2A2S)] solution by caudal intravenous injection. The exact amount of injected radioactivity was determined using a Capintec CRC-15PET dose calibrator. Micro PET/CT data were collected at 1, 4, and 24 h post injection using a Bruker Albira Si. Mice were anaesthetized with 1–2% isoflurane in a flow of oxygen (2 L/min 100% O2) and images were acquired over 20 min (10 min for PET and CT images acquisition, respectively). PET data were reconstructed using MLEM GPU (Graphics Processing Unit), while Filter Back Projection Algorithm was used for reconstructing CT images. Mice were euthanized by cervical dislocation immediately following the PET/CT scan and organs and tissues of interest were collected and weighed. Radioactivity associated with organs was measured using a γ-spectrometer based on a 1″×1″ inch cylindrical LBC (Lanthanum BromoChloride), LaBr2.85Cl0.15:Ce, inorganic scintillator manufactured by SCIONIX coupled to a HAMAMATSU R11102 Photomultiplier tube (PMT) which was previously characterized and validated against a Capintec CRC-15PET dose calibrator [48]. The results were corrected for decay to the time of injection. Radioactivity values were expressed as percentage of injected dose (mean ± SEM) per gram of tissue or organ (% ID/g). Concurrently, blood and urine aliquots (1 μL) were sampled for stability tests, which were carried out by radio-TLC scans (Cyclone, Perkin Elmer) by using silica gel 60 RP-18 F254S plates and 0.1 M sodium citrate as eluent.

[4] = In vivo stability in blood and urine samples (radio-TLC); set-up: species or system BALB/c nude mice
Method: as §3, with “PET data were reconstructed using MLEM GPU (Graphics Processing Unit), while Filter Back Projection Algorithm was used for reconstructing CT images. Mice were euthanized by cervical dislocation immediately following the PET/CT scan and organs and tissues of interest were collected and weighed.” left out, “The results were corrected for decay to the time of injection.” left out, “Concurrently, blood and urine aliquots (1 μL) were sampled for stability tests, which were carried out by radio-TLC scans (Cyclone, Perkin Elmer) by using silica gel 60 RP-18 F254S plates and 0.1 M sodium citrate as eluent.” left out

[5] = Stability in phosphate-buffered saline; type: physicochemical; details: 25 MBq/nmol, 24 h; for intact complex in PBS: no radioprotectant, ambient temperature
Method: The stability of the preformed [^64Cu]Cu^2+ complexes in phosphate-buffered saline (PBS) was explored by diluting the labelling solution 1:1 v/v in PBS (pH 7.4). Both low and high molar activities (0.1 MBq/nmol and 25 MBq/nmol, respectively) were employed to evaluate the effect of radiolysis. Radioprotectants (ethanol 10% v/v or ascorbic acid 10% v/v) were added to PBS to quench the radiolysis phenomena. The [^64Cu]Cu^2+ complex stabilities were investigated at different time points after preparation using the TLC or UHPLC protocols reported previously.

[6] = maximum reached over 1-24 h post-injection

| SMILES | % of intact complex, Cysteine, 0 h [1] [%] | % of intact complex, Cysteine, 3 h [1] [%] | % of intact complex, Cysteine, 24 h [1] [%] | % of intact complex, DOTA, 0 h [2] [%] | % of intact complex, DOTA, 7 h [2] [%] | % of intact complex, DOTA, 24 h [2] [%] | other results |
| --- | --- | --- | --- | --- | --- | --- | --- |
| O=C([O-])CN1CCN(CC(=O)[O-])CCN(CC(=O)[O-])CCN(CC(=O)[O-])CC1.[64Cu+2] [[^64Cu][Cu(DOTA)]^2−, reference compound] | – | – | – | – | – | – | intact complex in human serum (Human serum stability): around 80% |
| CNC(=O)CN1CCN(CCSC)CCN(CCSC)CCN(CCSC)CC1.[64Cu+2] [[^64Cu][Cu(DO3SAm)]^2+] | 100 | 83 | 72 | 100 | 80 | 38 | – |
| CSCCN1CCN(CC(=O)[O-])CCN(CCSC)CCN(CC(=O)[O-])CC1.[64Cu+2] [[^64Cu][Cu(DO2A2S)]] | 100 | 85 | 74 | 91 | 90 | 87 | blood levels ([3]; 1 h post-injection, tail vein): < 2 % ID/g; kidneys uptake ([3]; 1 h post-injection, tail vein): 14.1 % ID/g; liver uptake ([3]; 1 h post-injection, tail vein): 14.0 % ID/g; lungs uptake ([3]; 1 h post-injection, tail vein): 8 % ID/g; pancreas uptake ([3]; 1 h post-injection, tail vein): 3 % ID/g; retention in bone ([3]; 1 h post-injection, tail vein): < 2 % ID/g; retention in muscle ([3]; 1 h post-injection, tail vein): < 1 % ID/g; spleen uptake ([3]; 1 h post-injection, tail vein): 4 % ID/g; dose found at 1 h remaining in kidneys at 24 h ([3]; 24 h versus 1 h post-injection): 73%; dose found at 1 h remaining in liver at 24 h ([3]; 24 h versus 1 h post-injection): 82%; dose found at 1 h remaining in lungs at 24 h ([3]; 24 h versus 1 h post-injection): 75%; pancreas uptake, progressive accumulation over time [3, 6]: ≤ 5.5 % ID/g; spleen uptake, progressive accumulation over time [3, 6]: up to 5.3 % ID/g; free-[^64Cu]Cu^2+/+ in urine samples ([4]; 4 h post-injection): ~50%; free copper-64 in blood samples ([4]; within 24 h from the injection): less than 5%; intact complex in human serum (Human serum stability): > 99% |
| CSCCN1CCN(CCSC)CCN(CCSC)CCN(CCSC)CC1 [DO4S, 1,4,7,10-Tetrakis[2-(methylsulfanyl)ethyl]-1,4,7,10-tetraazacyclododecane] | – | – | – | – | – | – | intact complex in PBS [5]: ~ 70% |
| CSCCN1CCN(CC(=O)O)CCN(CCSC)CCN(CC(=O)O)CC1 [DO2A2S, 1,7-bis[2-(methylsulfanyl)ethyl]-4,10,diacetic acid-1,4,7,10-tetraazacyclododecane] | – | – | – | – | – | – | intact complex in PBS with ascorbic acid ([5]; ascorbic acid 10% v/v): ~ 90%; intact complex in PBS [5]: ~ 25% |
| CSCCN1CCN(CCSC)CCN(CCSC)CCN(CCSC)CC1.[64Cu+2] [[^64Cu][Cu(DO4S)]^2+] | 100 | 100 | 83 | 100 | 92 | 88 | complex stability in PBS with radioprotectants ([5]; ethanol 10% v/v or ascorbic acid 10% v/v): preserve the complex over 24 h |
| CSCCN1CCNCCN(CCSC)CCN(CCSC)CC1.[64Cu+2] [[^64Cu][Cu(DO3S)]^2+] | 100 | 100 | 100 | 100 | 100 | 100 | – |
